One assay concerns the target T1, PI3Kδ (Homo sapiens, UniProt O00329).
T1 construct: purchased Merck Millipore
Nature of the assay: In vitro PI3K inhibition assay (ADP-Glo kinase assay), PI3Kδ. The class given is biochemical. As to conditions: mean of two independent experiments. The protocol:
(§1) All compounds were tested in a biochemical assay that measured the inhibition of phosphatidylinositol […] production by PI3K isoforms using the ADP-Glo kinase assay (Promega). In addition, the effects of synthesized compounds on B cell proliferation were measured.
(§2) The potency and selectivity of compounds were assessed by measuring the ability of PI3K kinases to convert ATP to ADP during an enzymatic reaction in the presence of decreasing doses of tested compounds. The experiments were carried out using the ADP-Glo kinase assay kit (Promega), according to the manufacturer’s protocol. PI3Kα, PI3Kβ, PI3Kδ, and PI3Kγ have been purchased from Merck Millipore and phosphoinositol-4,5-bisphosphate (PIP2) lipid vesicles with phosphoserine from ThermoFisher Scientific were used as a substrate in the enzymatic reaction.
(§3) After the reaction, the ADP-Glo reagent and the kinase detection reagent were added sequentially with 40 min of incubation (25 °C, 600 rpm) after adding each reagent. Finally, the luminescence intensity was measured and the IC50 was calculated using GraphPad Prism 7 software. The presented results are the mean value of IC50 from at least two independent experiments.
Background: In ADP-Glo the light output rises with the ADP produced.

The target in the next assay is T2, PI3Kγ (Homo sapiens, UniProt P48736).
T2 construct: purchased Merck Millipore
T2 sequence (P48736 whole entry): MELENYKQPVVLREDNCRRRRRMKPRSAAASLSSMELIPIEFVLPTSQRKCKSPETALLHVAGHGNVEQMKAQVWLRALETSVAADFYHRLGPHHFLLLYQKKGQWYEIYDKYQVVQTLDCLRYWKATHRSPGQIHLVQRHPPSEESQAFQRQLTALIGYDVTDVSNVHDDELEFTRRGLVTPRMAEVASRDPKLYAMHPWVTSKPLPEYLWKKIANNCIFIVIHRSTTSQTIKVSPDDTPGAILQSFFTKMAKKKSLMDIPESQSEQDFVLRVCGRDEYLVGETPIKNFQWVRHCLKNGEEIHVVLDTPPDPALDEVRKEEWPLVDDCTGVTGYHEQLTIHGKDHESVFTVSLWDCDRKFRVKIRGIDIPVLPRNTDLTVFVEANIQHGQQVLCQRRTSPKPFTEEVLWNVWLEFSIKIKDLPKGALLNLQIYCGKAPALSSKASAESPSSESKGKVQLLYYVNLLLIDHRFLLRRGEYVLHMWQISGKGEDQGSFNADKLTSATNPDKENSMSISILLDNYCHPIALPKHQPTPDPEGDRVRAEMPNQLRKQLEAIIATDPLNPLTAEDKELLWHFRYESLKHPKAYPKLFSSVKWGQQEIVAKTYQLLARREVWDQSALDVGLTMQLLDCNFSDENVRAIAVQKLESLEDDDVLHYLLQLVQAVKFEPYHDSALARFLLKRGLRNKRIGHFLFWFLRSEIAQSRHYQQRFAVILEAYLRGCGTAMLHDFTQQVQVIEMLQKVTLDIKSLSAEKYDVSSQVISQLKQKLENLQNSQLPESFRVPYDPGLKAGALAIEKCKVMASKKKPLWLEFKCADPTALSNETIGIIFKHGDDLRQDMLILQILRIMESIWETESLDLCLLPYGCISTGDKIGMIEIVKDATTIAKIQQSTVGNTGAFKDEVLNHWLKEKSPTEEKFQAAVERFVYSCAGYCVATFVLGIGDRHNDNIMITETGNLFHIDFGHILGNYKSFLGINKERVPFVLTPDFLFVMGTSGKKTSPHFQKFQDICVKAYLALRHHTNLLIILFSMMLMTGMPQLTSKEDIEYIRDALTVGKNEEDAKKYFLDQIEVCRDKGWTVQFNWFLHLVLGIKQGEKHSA
Nature of the assay: In vitro PI3K inhibition assay (ADP-Glo kinase assay), PI3Kγ. The class given is biochemical. As to conditions: for IC50: mean of two independent experiments; for Fold Selectivity γ/δ: ratio IC50 PI3Kγ / IC50 PI3Kδ. The protocol: as §1, §2, §3

Consider 21 compounds from publication PMC9415947 (Pharmaceuticals, 2022).

T1 sequence (O00329 whole entry, looked up): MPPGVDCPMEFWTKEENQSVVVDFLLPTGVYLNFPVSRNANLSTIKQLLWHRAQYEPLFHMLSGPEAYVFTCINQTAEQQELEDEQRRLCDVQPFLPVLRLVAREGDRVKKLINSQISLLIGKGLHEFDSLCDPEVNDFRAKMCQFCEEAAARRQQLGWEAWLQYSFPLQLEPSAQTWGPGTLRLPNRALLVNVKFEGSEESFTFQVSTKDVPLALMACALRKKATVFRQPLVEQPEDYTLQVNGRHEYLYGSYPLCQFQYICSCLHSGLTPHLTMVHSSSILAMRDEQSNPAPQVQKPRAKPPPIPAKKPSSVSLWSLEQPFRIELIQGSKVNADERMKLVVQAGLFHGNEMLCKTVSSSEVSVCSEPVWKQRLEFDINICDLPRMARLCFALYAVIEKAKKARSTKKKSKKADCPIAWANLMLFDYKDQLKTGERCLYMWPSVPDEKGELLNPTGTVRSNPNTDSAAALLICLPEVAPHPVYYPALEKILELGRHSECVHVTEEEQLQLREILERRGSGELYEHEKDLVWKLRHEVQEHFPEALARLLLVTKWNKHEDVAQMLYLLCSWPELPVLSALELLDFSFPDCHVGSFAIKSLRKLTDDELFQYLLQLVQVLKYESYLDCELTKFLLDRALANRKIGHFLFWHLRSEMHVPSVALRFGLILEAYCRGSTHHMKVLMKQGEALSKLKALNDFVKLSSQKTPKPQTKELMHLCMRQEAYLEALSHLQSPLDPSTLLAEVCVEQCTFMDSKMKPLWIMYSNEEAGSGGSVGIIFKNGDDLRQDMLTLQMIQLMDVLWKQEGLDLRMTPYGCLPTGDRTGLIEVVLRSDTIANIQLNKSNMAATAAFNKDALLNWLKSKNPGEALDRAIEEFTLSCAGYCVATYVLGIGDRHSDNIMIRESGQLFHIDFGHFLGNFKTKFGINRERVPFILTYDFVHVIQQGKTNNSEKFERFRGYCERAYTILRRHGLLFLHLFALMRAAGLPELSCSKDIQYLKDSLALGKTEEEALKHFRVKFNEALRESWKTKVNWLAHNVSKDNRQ

`CC(C)N1CCN(Cc2cc3nc(-n4c(C(F)F)nc5ccccc54)cc(N4CCOCC4)n3n2)CC1` [Compound 38, 2-(difluoromethyl)-1-[7-(morpholin-4-yl)-2-{[4-(propan-2-yl)piperazin-1-yl]methyl}pyrazolo[1,5-a]pyrimidin-5-yl]-1H-1,3-benzimidazole]: inhibition at PI3Kδ was half-maximal at 38 nM (IC50). Further, at PI3Kγ, the half-inhibitory concentration (IC50) is 13300 nM and the “Fold Selectivity γ/δ” value was 351.
With `O=C(c1cc2nc(-n3c(C(F)F)nc4ccccc43)cc(N3CCOCC3)n2n1)N1CCC(CO)CC1` [Compound 50, (1-{5-[2-(difluoromethyl)-1H-1,3-benzimidazol-1-yl]-7-(morpholin-4-yl)pyrazolo[1,5-a]pyrimidine-2-carbonyl}piperidin-4-yl)methanol], half-maximal inhibition against PI3Kδ (IC50) required 90 nM. Further, on PI3Kγ, the IC50 amounted to 1780 nM and the “Fold Selectivity γ/δ” value worked out at 20.
At PI3Kδ, `CC1(O)CCN(C(=O)c2cc3nc(-n4c(C(F)F)nc5ccccc54)cc(N4CCOCC4)n3n2)CC1` [Compound 49, 1-{5-[2-(difluoromethyl)-1H-1,3-benzimidazol-1-yl]-7-(morpholin-4-yl)pyrazolo[1,5-a]pyrimidine-2-carbonyl}-4-methylpiperidin-4-ol] displayed an IC50 of 213 nM. Also, at PI3Kγ, the IC50 came to 1820 nM and the “Fold Selectivity γ/δ” value is 8.5.
In the same order, the values of `OCC1CCN(Cc2cc3nc(-n4c(C(F)F)nc5ccccc54)cc(N4CCOCC4)n3n2)CC1` [Compound 31, [1-({5-[2-(difluoromethyl)-1H-1,3-benzimidazol-1-yl]-7-(morpholin-4-yl)pyrazolo[1,5-a]pyrimidin-2-yl}methyl)piperidin-4-yl]methanol] are 593 nM, 8320 nM and 14.
Turning to `NC(=O)C1CCN(Cc2cc3nc(-n4c(C(F)F)nc5ccccc54)cc(N4CCOCC4)n3n2)CC1` [Compound 29, 1-({5-[2-(difluoromethyl)-1H-1,3-benzimidazol-1-yl]-7-(morpholin-4-yl)pyrazolo[1,5-a]pyrimidin-2-yl}methyl)piperidine-4-carboxamide], half-maximal inhibition on PI3Kδ (IC50) required 240 nM. Moreover, at PI3Kγ, half-maximal inhibition (IC50) required 1860 nM and the “Fold Selectivity γ/δ” value was determined as 7.7.
`CC(=O)NC1CCN(C(=O)c2cc3nc(-n4c(C(F)F)nc5ccccc54)cc(N4CCOCC4)n3n2)CC1` [Compound 54, N-(1-{5-[2-(difluoromethyl)-1H-1,3-benzimidazol-1-yl]-7-(morpholin-4-yl)pyrazolo[1,5-a]pyrimidine-2-carbonyl}piperidin-4-yl)acetamide] gave an IC50 on PI3Kδ of 141 nM. On PI3Kγ, the IC50 amounted to 1690 nM and the “Fold Selectivity γ/δ” value was 12.
Regarding `CN1CCN(Cc2cc3nc(-n4c(C(F)F)nc5ccccc54)cc(N4CCOCC4)n3n2)CC1` [Compound 37, 2-(difluoromethyl)-1-{2-[(4-methylpiperazin-1-yl)methyl]-7-(morpholin-4-yl)pyrazolo[1,5-a]pyrimidin-5-yl}-1H-1,3-benzimidazole], the IC50 at PI3Kδ turned out to be 351 nM. In addition, on PI3Kγ, the IC50 stood at 17700 nM and the “Fold Selectivity γ/δ” value is 50.
For the compound `CCOC(=O)C1CCCN(Cc2cc3nc(-n4c(C(F)F)nc5ccccc54)cc(N4CCOCC4)n3n2)C1` (centres unmarked) [Compound 26, 1-({5-[2-(difluoromethyl)-1H-1,3-benzodiazol-1-yl]-7-(morpholin-4-yl)pyrazolo[1,5-a]pyrimidin-2-yl}methyl)piperidine-3-carboxylate], the values for the IC50 on PI3Kδ and on PI3Kγ were 203 nM and 4280 nM, respectively. The “Fold Selectivity γ/δ” value on PI3Kγ came out at 21.
In the case of `CC1(O)CCN(Cc2cc3nc(-n4c(C(F)F)nc5ccccc54)cc(N4CCOCC4)n3n2)CC1` [Compound 30, 1-({5-[2-(difluoromethyl)-1H-1,3-benzimidazol-1-yl]-7-(morpholin-4-yl)pyrazolo[1,5-a]pyrimidin-2-yl}methyl)-4-methylpiperidin-4-ol], the IC50 on PI3Kδ was 615 nM; at PI3Kγ, 7550 nM. For the same compound, the “Fold Selectivity γ/δ” value at PI3Kγ stood at 12.
Taken in the same sequence, the figures for `CNC(=O)CN1CCN(C(=O)c2cc3nc(-n4c(C(F)F)nc5ccccc54)cc(N4CCOCC4)n3n2)CC1` [Compound 55, 2-(4-{5-[2-(difluoromethyl)-1H-1,3-benzimidazol-1-yl]-7-(morpholin-4-yl)pyrazolo[1,5-a]pyrimidine-2-carbonyl}piperazin-1-yl)-N-methylacetamide] were 82 nM, 2170 nM and 26.
As to `O[C@@H]1CCN(Cc2cc3nc(-n4c(C(F)F)nc5ccccc54)cc(N4CCOCC4)n3n2)C1` [Compound 22, (3R)-1-({5-[2-(difluoromethyl)-1H-1,3-benzimidazol-1-yl]-7-(morpholin-4-yl)pyrazolo[1,5-a]pyrimidin-2-yl}methyl)pyrrolidin-3-ol], the IC50 against PI3Kδ amounted to 979 nM. For the same compound, on PI3Kγ, the midpoint of inhibition, the IC50, lay at 8420 nM and the “Fold Selectivity γ/δ” value is reported as 8.6.
As for `O=C(c1cc2nc(-n3c(C(F)F)nc4ccccc43)cc(N3CCOCC3)n2n1)N1CCOCC1` [Compound 46, 2-(difluoromethyl)-1-[7-(morpholin-4-yl)-2-(morpholine-4-carbonyl)pyrazolo[1,5-a]pyrimidin-5-yl]-1H-1,3-benzimidazole], the IC50 on PI3Kδ was 226 nM; against PI3Kγ, 8540 nM. Also, at PI3Kγ, the “Fold Selectivity γ/δ” value was found to be 38.
`CNC(=O)CN1CCN(Cc2cc3nc(-n4c(C(F)F)nc5ccccc54)cc(N4CCOCC4)n3n2)CC1` [Compound 36, 2-[4-({5-[2-(difluoromethyl)-1H-1,3-benzimidazol-1-yl]-7-(morpholin-4-yl)pyrazolo[1,5-a]pyrimidin-2-yl}methyl)piperazin-1-yl]-N-methylacetamide] had a concentration for half-maximal inhibition (IC50) against PI3Kδ of 63 nM. Further, at PI3Kγ, 1250 nM corresponded to half-maximal inhibition (IC50) and the “Fold Selectivity γ/δ” value is listed as 20.
For `CC(C)(C(N)=O)N1CCN(C(=O)c2cc3nc(-n4c(C(F)F)nc5ccccc54)cc(N4CCOCC4)n3n2)CC1` [Compound 42, 2-(4-{5-[2-(difluoromethyl)-1H-1,3-benzimidazol-1-yl]-7-(morpholin-4-yl)pyrazolo[1,5-a]pyrimidine-2-carbonyl}piperazin-1-yl)-2-methylpropanamide], the IC50 turned out to be 74 nM on PI3Kδ and 3590 nM against PI3Kγ. Also, the “Fold Selectivity γ/δ” value at PI3Kγ is given as 48.
In the same order, the values of `FC(F)c1nc2ccccc2n1-c1cc(N2CCOCC2)n2nc(CN3CCOCC3)cc2n1` [Compound 23, 2-(difluoromethyl)-1-[7-(morpholin-4-yl)-2-(morpholin-4-ylmethyl)pyrazolo[1,5-a]pyrimidin-5-yl]-1H-1,3-benzimidazole] are 135 nM, 1380 nM and 10.
In the case of `C[C@H]1COCCN1Cc1cc2nc(-n3c(C(F)F)nc4ccccc43)cc(N3CCOCC3)n2n1` [Compound 24, 2-(difluoromethyl)-1-(2-{[(3S)-3-methylmorpholin-4-yl]methyl}-7-(morpholin-4-yl)pyrazolo[1,5-a]pyrimidin-5-yl)-1H-1,3-benzimidazole], it took 254 nM to reach half-maximal inhibition at PI3Kδ (IC50). Besides, on PI3Kγ, the IC50 stood at 588 nM and the “Fold Selectivity γ/δ” value is 2.3.
`OCC1CCCN1Cc1cc2nc(-n3c(C(F)F)nc4ccccc43)cc(N3CCOCC3)n2n1` (centres unmarked) [Compound 19, [1-({5-[2-(difluoromethyl)-1H-1,3-benzimidazol-1-yl]-7-(morpholin-4-yl)pyrazolo[1,5-a]pyrimidin-2-yl}methyl)pyrrolidin-2-yl]methanol] yielded an IC50 at PI3Kδ of 1070 nM. Besides, at PI3Kγ, it took 4470 nM to reach half-maximal inhibition (IC50) and the “Fold Selectivity γ/δ” value is 4.2.
As for `CN1CCN(C(=O)c2cc3nc(-n4c(C(F)F)nc5ccccc54)cc(N4CCOCC4)n3n2)CC1` [Compound 56, 2-(difluoromethyl)-1-[2-(4-methylpiperazine-1-carbonyl)-7-(morpholin-4-yl)pyrazolo[1,5-a]pyrimidin-5-yl]-1H-1,3-benzimidazole], the IC50 turned out to be 768 nM on PI3Kδ and 11400 nM on PI3Kγ.
Take `CC(=O)NC1CCN(Cc2cc3nc(-n4c(C(F)F)nc5ccccc54)cc(N4CCOCC4)n3n2)CC1` [Compound 35, N-[1-({5-[2-(difluoromethyl)-1H-1,3-benzimidazol-1-yl]-7-(morpholin-4-yl)pyrazolo[1,5-a]pyrimidin-2-yl}methyl)piperidin-4-yl]acetamide]: the values for the IC50 against PI3Kδ and at PI3Kγ were 445 nM and 1500 nM, respectively. On PI3Kγ, the “Fold Selectivity γ/δ” value is reported as 3.4.
For the compound `C[C@@H]1COCCN1Cc1cc2nc(-n3c(C(F)F)nc4ccccc43)cc(N3CCOCC3)n2n1` [Compound 25, 2-(difluoromethyl)-1-(2-{[(3R)-3-methylmorpholin-4-yl]methyl}-7-(morpholin-4-yl)pyrazolo[1,5-a]pyrimidin-5-yl)-1H-1,3-benzimidazole], at PI3Kδ, the midpoint of inhibition, the IC50, lay at 647 nM. Moreover, on PI3Kγ, the IC50 was 1970 nM and the “Fold Selectivity γ/δ” value amounted to 3.0.
At PI3Kδ, `FC(F)c1nc2ccccc2n1-c1cc(N2CCOCC2)n2nc(CN3CCC(F)(F)CC3)cc2n1` [Compound 28, 2-(difluoromethyl)-1-{2-[(4,4-difluoropiperidin-1-yl)methyl]-7-(morpholin-4-yl)pyrazolo[1,5-a]pyrimidin-5-yl}-1H-1,3-benzimidazole] showed an IC50 of 443 nM. Besides, at PI3Kγ, the IC50 was 1710 nM and the “Fold Selectivity γ/δ” value worked out at 3.9.

Usually IC50 stands for the concentration that gives 50% inhibition. A low value points to greater potency in that assay.
